Experimental data taken from patent US20240383882A1 (Ecstasy LLC, priority 2020, published 2024).
Counter-ions that a name gives are not always drawn.

Test system: male C57BL/6 mice
Experiment: 55° C. warm-water tail-flick test (antinociception)
Assay type: in vivo
Conditions: Mus musculus, sc, 0.5 h, compounds of Table I; s.c.; 30 min; 55° C. water; configuration tested as in Table II; read-out: ED50 (mg/kg) at 30 min on C57BL/6 mice in Warm-water Tail-flick Test
In short: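 Subcutaneous dosing, then tail immersion in 55° C water at 30–120 min; latency normalized as 100×(test−control)/(20−control), using a 20 s cutoff, after excluding mice not responding within 2 s at baseline. Values expressed as ED50 (mg/kg).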

Question: Which ED50 does the source give for `CCOC(C(F)(F)F)(C(F)(F)F)[C@]1(CCc2ccc(F)cc2)CCN(Cc2ccc(C)nc2)C1` [Compound 13, (R)-5-((3-(2-ethoxy-1,1,1,3,3,3-hexafluoropropan-2-yl)-3-(4-fluorophenethyl)pyrrolidin-1-yl)methyl)-2-methylpyridine] here?
Answer: ≤ 30 mg/kg

Question: For `CC(C)(c1ccccn1)N1CC[C@](CCc2ccc(C#N)cc2)([C@@H]2CCCO2)C1` [Compound 41, 4-(2-((S)-1-(2-(pyridin-2-yl)propan-2-yl)-3-((S)-tetrahydrofuran-2-yl)pyrrolidin-3-yl)ethyl) benzonitrile], which ED50 is on record?
Answer: ≤ 30 mg/kg

Question: With `CCOCC1(CCn2cnc3cnccc32)CCN(C(C)(C)c2ccc(C)nc2)C1` (centres unmarked) [Compound 91, 1-(2-(3-(ethoxymethyl)-1-(2-(6-methylpyridin-3-yl)propan-2-yl)pyrrolidin-3-yl)ethyl)-1H-imidazo[4,5-c]pyridine citrate] as the compound, how does the ED50 read?
Answer: ≤ 30 mg/kg

Same assay, conditions: Mus musculus, sc, 0.5 h, compounds of Table V; s.c.; 30 min; 55° C. water; read-out: ED50 (mg/kg) at 30 min on C57BL/6 mice in Warm-water Tail-flick Test (same conditions as Table II)

Question: Which ED50 does the source give for `CCOC(C(F)(F)F)(C(F)(F)F)[C@]1(CCc2ccc(F)cc2)CCN(Cc2ccc(C)nc2)C1` [Compound 13, (R)-5-((3-(2-ethoxy-1,1,1,3,3,3-hexafluoropropan-2-yl)-3-(4-fluorophenethyl)pyrrolidin-1-yl)methyl)-2-methylpyridine] here?
Answer: > 50 mg/kg

Question: How did the ED50 turn out when `CCOCC1(CCc2ccccc2)CCN(Cc2ccc(NC(=O)OC)cc2)CC1` [Compound 24] was run?
Answer: > 50 mg/kg

Same assay, conditions: Mus musculus; half maximal effective dose in mice; using one of: warm water tail-flick test, spared nerve injury, chronic constriction injury, or Complete Freund's adjuvant induced inflammatory pain (not stated which per compound); read-out: Biological Activity (ED50)

Question: How did the ED50 turn out when `CCOC(C(F)(F)F)(C(F)(F)F)[C@]1(CCc2ccc(C#N)cc2)CCN(C(C)(C)c2ccc(C)nc2)C1` [Compound 6, (R)-4-(2-(3-(2-ethoxy-1,1,1,3,3,3-hexafluoropropan-2-yl)-1-(2-(6-methylpyridin-3-yl)propan-2-yl)pyrrolidin-3-yl)ethyl) benzonitrile] was run?
Answer: ≤ 30 mg/kg

Question: `CCOC(C(F)(F)F)(C(F)(F)F)[C@]1(CCc2ccc(C)cc2)CCN(C(C)(C)c2ccc(C)nc2)C1` [Compound 7, (R)-5-(2-(3-(2-ethoxy-1,1,1,3,3,3-hexafluoropropan-2-yl)-3-(4-methylphenethyl)pyrrolidin-1-yl)propan-2-yl)-2-methylpyridine] was tested. Which ED50 did it give?
Answer: > 50 mg/kg

Question: With `CCOC(C(F)(F)F)(C(F)(F)F)[C@]1(CCc2ccc(C#N)cc2)CCN(Cc2ccc(C)nc2)C1` [Compound 8, (R)-4-(2-(3-(2-ethoxy-1,1,1,3,3,3-hexafluoropropan-2-yl)-1-((6-methylpyridin-3-yl)methyl)pyrrolidin-3-yl)ethyl) benzonitrile] as the compound, how does the ED50 read?
Answer: > 50 mg/kg

Question: How did the ED50 turn out when `CCOC(C(F)(F)F)(C(F)(F)F)[C@]1(CCc2ccc(C#N)cc2)CCN(Cc2cccnc2)C1` [Compound 9, (R)-4-(2-(3-(2-ethoxy-1,1,1,3,3,3-hexafluoropropan-2-yl)-1-(pyridin-3-ylmethyl)pyrrolidin-3-yl)ethyl) benzonitrile] was run?
Answer: > 50 mg/kg

Question: How did the ED50 turn out when `CCOC[C@]1(CCc2ccc(C#N)cc2)CCN(C(c2cccnc2)c2cccnc2)C1` [Compound 10, (R)-4-(2-(1-(di(pyridin-3-yl)methyl)-3-(ethoxymethyl)pyrrolidin-3-yl)ethyl) benzonitrile] was run?
Answer: > 50 mg/kg

Question: Which ED50 does the source give for `CCOC(C(F)(F)F)(C(F)(F)F)[C@]1(CCc2ccc(F)cc2)CCN(Cc2ccc(C)nc2)C1` [Compound 13, (R)-5-((3-(2-ethoxy-1,1,1,3,3,3-hexafluoropropan-2-yl)-3-(4-fluorophenethyl)pyrrolidin-1-yl)methyl)-2-methylpyridine] here?
Answer: > 50 mg/kg

Question: Which ED50 does the source give for `CCOC(C(F)(F)F)(C(F)(F)F)[C@]1(CCc2ccc(F)cc2)CCN(Cc2cccnc2)C1` [Compound 14, (R)-3-((3-(2-ethoxy-1,1,1,3,3,3-hexafluoropropan-2-yl)-3-(4-fluorophenethyl)pyrrolidin-1-yl)methyl)pyridine] here?
Answer: > 50 mg/kg

Question: For `Cc1ccc(C(C)(C)N2CC[C@](CO)(CCc3ccc(F)cc3)C2)cn1` [Compound 15, (R)-(3-(4-fluorophenethyl)-1-(2-(6-methylpyridin-3-yl)propan-2-yl)pyrrolidin-3-yl)methanol], which ED50 is on record?
Answer: ≤ 30 mg/kg

Question: How did the ED50 turn out when `Cc1ccc(C(C)(C)N2CC[C@@](CCc3ccc(F)cc3)(CS(C)(=O)=O)C2)cn1` [Compound 16, (R)-5-(2-(3-(4-fluorophenethyl)-3-((methylsulfonyl)methyl)pyrrolidin-1-yl)propan-2-yl)-2-methylpyridine] was run?
Answer: ≤ 30 mg/kg

Question: Which ED50 does the source give for `Cc1ccc(C(C)(C)N2CC[C@@](CCc3ccc(C#N)cc3)(COCc3ccccc3)C2)cn1` [Compound 17, (R)-4-(2-(3-((benzyloxy)methyl)-1-(2-(6-methylpyridin-3-yl)propan-2-yl)pyrrolidin-3-yl)ethyl) benzonitrile] here?
Answer: ≤ 30 mg/kg

Question: Which ED50 does the source give for `Cc1ccc(C(C)(C)N2CC[C@](CO)(CCc3ccc(C#N)cc3)C2)cn1` [Compound 18, (R)-4-(2-(3-(hydroxymethyl)-1-(2-(6-methylpyridin-3-yl)propan-2-yl)pyrrolidin-3-yl)ethyl) benzonitrile] here?
Answer: ≤ 30 mg/kg

Question: For `Cc1ccc(C(C)(C)N2CC[C@@](CCc3ccc(C#N)cc3)(CS(C)(=O)=O)C2)cn1` [Compound 19, (R)-4-(2-(1-(2-(6-methylpyridin-3-yl)propan-2-yl)-3-((methylsulfonyl)methyl)pyrrolidin-3-yl)ethyl)benzonitrile], which ED50 is on record?
Answer: ≤ 30 mg/kg

Question: Which ED50 does the source give for `Cc1ccc(C(C)(C)N2CC[C@@](CCc3ccc(C#N)cc3)(COS(C)=O)C2)cn1` (stereo partly drawn) [Compound 20, ((R)-3-(4-cyanophenethyl)-1-(2-(6-methylpyridin-3-yl)propan-2-yl)pyrrolidin-3-yl)methyl methanesulfinate] here?
Answer: ≤ 30 mg/kg

Question: How did the ED50 turn out when `CCOC(C(F)(F)F)(C(F)(F)F)[C@]1(CCc2ccc(C#N)cc2)CCN(C(C)(C)c2ccns2)C1` [Compound 22, (R)-4-(2-(3-(2-ethoxy-1,1,1,3,3,3-hexafluoropropan-2-yl)-1-(2-(isothiazol-5-yl)propan-2-yl)pyrrolidin-3-yl)ethyl) benzonitrile] was run?
Answer: ≤ 30 mg/kg

Question: `CCOC(C(F)(F)F)(C(F)(F)F)[C@]1(COCc2ccccc2)CCN(C(C)(C)c2ccns2)C1` [Compound 23, (R)-5-(2-(3-((benzyloxy)methyl)-3-(2-ethoxy-1,1,1,3,3,3-hexafluoropropan-2-yl)pyrrolidin-1-yl)propan-2-yl)isothiazole] was tested. Which ED50 did it give?
Answer: > 50 mg/kg

Question: With `COC(C(F)(F)F)(C(F)(F)F)[C@]1(COCc2ccccc2)CCN(C2(c3ncon3)COC2)C1` [Compound 24] as the compound, how does the ED50 read?
Answer: > 50 mg/kg

Question: How did the ED50 turn out when `CCOC[C@]1(CCc2ccc(C#N)cc2)CCN(C(C)c2ccnnc2)C1` (stereo partly drawn) [Compound 25, 4-(2-((3R)-3-(ethoxymethyl)-1-(1-(pyridazin-4-yl)ethyl)pyrrolidin-3-yl)ethyl)benzonitrile] was run?
Answer: ≤ 30 mg/kg

Question: `Cc1ccc(C(C)(C)N2CC[C@@](CCc3ccc(C#N)cc3)(COCC(F)(F)F)C2)cn1` [Compound 26, (R)-4-(2-(1-(2-(6-methylpyridin-3-yl)propan-2-yl)-3-((2,2,2-trifluoroethoxy)methyl)pyrrolidin-3-yl)ethyl)benzonitrile] was tested. Which ED50 did it give?
Answer: > 50 mg/kg

Question: `CCOC[C@@]1(CCc2ccc(C#N)cc2)CCN(C(c2cccnc2)c2cccnc2)C1` [Compound 27, (S)-4-(2-(1-(di(pyridin-3-yl)methyl)-3-(ethoxymethyl)pyrrolidin-3-yl)ethyl) benzonitrile] was tested. Which ED50 did it give?
Answer: > 50 mg/kg

Question: How did the ED50 turn out when `CC(C)(c1ccc(C(F)(F)F)nc1)N1CC[C@@](CCc2ccc(C#N)cc2)(COCC(F)(F)F)C1` [Compound 28, (R)-4-(2-(3-((2,2,2-trifluoroethoxy)methyl)-1-(2-(6-(trifluoromethyl)pyridin-3-yl)propan-2-yl)pyrrolidin-3-yl)ethyl) benzonitrile] was run?
Answer: > 50 mg/kg

Question: `CC(C)(c1ccc(S(C)(=O)=O)cc1)N1CC[C@@](CCc2ccc(F)cc2)(COCc2ccccc2)C1` [Compound 33, (R)-3-((benzyloxy)methyl)-3-(4-fluorophenethyl)-1-(2-(4-(methylsulfonyl)phenyl)propan-2-yl)pyrrolidine] was tested. Which ED50 did it give?
Answer: > 50 mg/kg

Question: For `CCC(C)(c1ccc(S(C)(=O)=O)cc1)N1CC[C@@](CCc2ccc(F)cc2)(COCc2ccccc2)C1` (stereo partly drawn) [Compound 34, (3R)-3-((benzyloxy)methyl)-3-(4-fluorophenethyl)-1-(2-(4-(methylsulfonyl)phenyl)butan-2-yl)pyrrolidine], which ED50 is on record?
Answer: > 50 mg/kg

Question: For `CC(C)(c1ccc(Cl)cc1)N1CC[C@](CO)(CCc2ccc(S(C)(=O)=O)cc2)C1` [Compound 35, (R)-(1-(2-(4-chlorophenyl)propan-2-yl)-3-(4-(methylsulfonyl)phenethyl)pyrrolidin-3-yl)methanol], which ED50 is on record?
Answer: > 50 mg/kg

Question: `CC(C)(c1ccc(S(C)(=O)=O)cc1)N1CC[C@](CO)(CCc2ccc(F)cc2)C1` [Compound 36, (R)-(3-(4-fluorophenethyl)-1-(2-(4-(methylsulfonyl)phenyl)propan-2-yl)pyrrolidin-3-yl)methanol] was tested. Which ED50 did it give?
Answer: > 50 mg/kg

Question: For `CC(C)(c1ccc(Cl)cc1)N1CC[C@@](CCc2ccc(S(C)(=O)=O)cc2)(COCc2ccccc2)C1` [Compound 37, (R)-3-((benzyloxy)methyl)-1-(2-(4-chlorophenyl)propan-2-yl)-3-(4-(methylsulfonyl)phenethyl) pyrrolidine], which ED50 is on record?
Answer: > 50 mg/kg

Question: `CSc1ccc(C(C)(C)N2CC[C@@](CCc3ccc(F)cc3)(COCc3ccccc3)C2)cc1` [Compound 40, (R)-3-((benzyloxy)methyl)-3-(4-fluorophenethyl)-1-(2-(4-(methylthio)phenyl)propan-2-yl)pyrrolidine] was tested. Which ED50 did it give?
Answer: > 50 mg/kg

Question: For `CC(C)(c1ccccn1)N1CC[C@](CCc2ccc(C#N)cc2)([C@@H]2CCCO2)C1` [Compound 41, 4-(2-((S)-1-(2-(pyridin-2-yl)propan-2-yl)-3-((S)-tetrahydrofuran-2-yl)pyrrolidin-3-yl)ethyl) benzonitrile], which ED50 is on record?
Answer: > 50 mg/kg

Question: How did the ED50 turn out when `COC[C@@]1(CCc2ccc(S(C)(=O)=O)cc2)CCN(C(C)(C)c2ccc(Cl)cc2)C1` [Compound 43] was run?
Answer: > 50 mg/kg

Question: `CC(C)(c1ccc(Cl)cc1)N1CC[C@@](CO)(CCc2ccc(S(C)(=O)=O)cc2)C1` [Compound 44] was tested. Which ED50 did it give?
Answer: > 50 mg/kg

Question: `COC[C@@]1(CCc2ccc(S(C)(=O)=O)cc2)CCN(C(C)(C)c2ccc(Cl)cn2)C1` [Compound 45] was tested. Which ED50 did it give?
Answer: > 50 mg/kg

Question: With `CCOC[C@@]1(CCc2ccc(S(C)(=O)=O)cc2)CCN(C(C)(C)c2ccc(Cl)cc2)C1` [Compound 51] as the compound, how does the ED50 read?
Answer: ≤ 30 mg/kg

Question: For `CC(C)(c1ccccn1)N1CC[C@](CO)(CCc2ccc(S(C)(=O)=O)cc2)C1` [Compound 53], which ED50 is on record?
Answer: > 50 mg/kg

Question: How did the ED50 turn out when `COC[C@]1(CCc2ccc(C#N)cc2)CCN(C(C)(C)c2ccccn2)C1` [Compound 59] was run?
Answer: > 50 mg/kg

Question: How did the ED50 turn out when `CC(C)(O)[C@@]1(CCc2ccc(C#N)cc2)CCN(C(c2cccnc2)c2cccnc2)C1` [Compound 63] was run?
Answer: > 50 mg/kg

Question: With `N#Cc1ccc(CC[C@]2(CO)CCN(C(c3ccc(F)cc3)c3cccnc3)C2)cc1` (some centres unmarked) [Compound 64] as the compound, how does the ED50 read?
Answer: > 50 mg/kg

Question: For `Cc1ccc(N(C)N2CC[C@@](CO)(CCc3ccccc3)C2)cn1` [Compound 68], which ED50 is on record?
Answer: > 50 mg/kg
